{"source": "PubChem BioAssay AID328", "about": "(DTP/NCI, 2004)", "tested_on": "BDF1 mice, P388 leukemia ip, median survival T/C", "experiment": "NCI In Vivo Anticancer Drug Screen. Data for tumor model P388 Leukemia (intraperitoneal) in B6D2F1 (BDF1) mice", "details": "endpoint: median survival time, higher = longer survival", "procedure,_shortened": "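In tumour-bearing mice, survival after compound treatment is set against the vehicle group and given as a quotient.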", "key": {"[1]": {"details": "dose: 25.0 mg/kg/injection, schedule: Q01DX009 (ip), vehicle: saline"}, "[2]": {"details": "dose: 50.0 mg/kg/injection, schedule: Q04DX003 (ip), vehicle: saline with Tween-80"}}, "note": "“And” between values parts separate entries of the source, which are not always exact repeats. Equal entries are not always repeated. Inconclusive results and toxic doses are left out."}
{"smiles": "CC1(C)CS(=O)(=O)CC1=O", "values": [{"measurement": "T/C", "setting": "dose: 25.0 mg/kg/injection, schedule: Q01DX001 (ip), vehicle: Klucel (hydroxypropylcellulose) (HPC)", "value": "100 % of control"}, {"measurement": "T/C", "setting": "dose: 50.0 mg/kg/injection, schedule: Q01DX001 (ip), vehicle: Klucel (hydroxypropylcellulose) (HPC)", "value": "100 % of control"}, {"measurement": "T/C", "setting": "dose: 100.0 mg/kg/injection, schedule: Q01DX001 (ip), vehicle: Klucel (hydroxypropylcellulose) (HPC)", "value": "90 % of control and 104 % of control"}]}
{"smiles": "CCN(CC)CCCCCNc1cc(Cl)c(Cl)cc1[N+](=O)[O-]", "values": [{"measurement": "T/C", "setting": "dose: 50.0 mg/kg/injection, schedule: Q01DX009 (ip), vehicle: saline", "value": "111 % of control"}, {"measurement": "T/C", "setting": "dose: 100.0 mg/kg/injection, schedule: Q01DX009 (ip), vehicle: saline", "value": "100 % of control"}]}
{"smiles": "CCOC(=O)c1c[nH]c2ccccc2c1=O", "values": [{"measurement": "T/C", "setting": "dose: 100.0 mg/kg/injection, schedule: Q04DX002 (ip), vehicle: saline", "value": "107 % of control"}, {"measurement": "T/C", "setting": "dose: 200.0 mg/kg/injection, schedule: Q04DX002 (ip), vehicle: saline", "value": "111 % of control"}, {"measurement": "T/C", "setting": "dose: 400.0 mg/kg/injection, schedule: Q04DX002 (ip), vehicle: saline", "value": "102 % of control"}]}
{"smiles": "CCN(CC)C(=O)c1cccc(COc2ccc(N3C(N)=NC(N)=NC3(C)C)cc2Cl)c1", "values": [{"measurement": "T/C", "setting": "dose: 16.5 mg/kg/injection, schedule: Q01DX009 (ip), vehicle: saline", "value": "110 % of control"}, {"measurement": "T/C", "setting": "[1]", "value": "120 % of control"}, {"measurement": "T/C", "setting": "dose: 37.5 mg/kg/injection, schedule: Q01DX009 (ip), vehicle: saline", "value": "120 % of control"}]}
{"smiles": "Cc1ccc(C(=S)NC(=O)NS(C)(=O)=O)cc1", "values": [{"measurement": "T/C", "setting": "dose: 100.0 mg/kg/injection, schedule: Q01DX001 (ip), vehicle: saline with Tween-80", "value": "106 % of control"}, {"measurement": "T/C", "setting": "dose: 200.0 mg/kg/injection, schedule: Q01DX001 (ip), vehicle: saline with Tween-80", "value": "105 % of control"}, {"measurement": "T/C", "setting": "dose: 400.0 mg/kg/injection, schedule: Q01DX001 (ip), vehicle: saline with Tween-80", "value": "99 % of control"}]}
{"smiles": "CC(C)(C)CC(C)(C)c1ccc(O)cc1", "values": [{"measurement": "T/C", "setting": "dose: 100.0 mg/kg/injection, schedule: Q04DX003 (ip), vehicle: saline", "value": "100 % of control"}, {"measurement": "T/C", "setting": "dose: 200.0 mg/kg/injection, schedule: Q04DX003 (ip), vehicle: saline", "value": "115 % of control"}, {"measurement": "T/C", "setting": "dose: 400.0 mg/kg/injection, schedule: Q04DX003 (ip), vehicle: saline", "value": "120 % of control"}]}
{"smiles": "OCCN1CCN(CC/C=C2/c3ccccc3Sc3ccc(Cl)cc32)CC1", "values": [{"measurement": "T/C", "setting": "dose: 5.56 mg/kg/injection, schedule: Q01DX009 (ip), vehicle: saline", "value": "108 % of control"}, {"measurement": "T/C", "setting": "dose: 8.33 mg/kg/injection, schedule: Q01DX009 (ip), vehicle: saline", "value": "108 % of control"}, {"measurement": "T/C", "setting": "dose: 12.5 mg/kg/injection, schedule: Q01DX009 (ip), vehicle: saline", "value": "120 % of control"}, {"measurement": "T/C", "setting": "[1]", "value": "113 % of control"}, {"measurement": "T/C", "setting": "dose: 33.0 mg/kg/injection, schedule: Q04DX003 (ip), vehicle: saline", "value": "150 % of control"}]}
{"smiles": "COc1ccc(OC(=O)CCCl)cc1", "values": [{"measurement": "T/C", "setting": "dose: 100.0 mg/kg/injection, schedule: Q04DX003 (ip), vehicle: saline with Tween-80", "value": "100 % of control"}, {"measurement": "T/C", "setting": "dose: 200.0 mg/kg/injection, schedule: Q04DX003 (ip), vehicle: saline with Tween-80", "value": "100 % of control"}, {"measurement": "T/C", "setting": "dose: 400.0 mg/kg/injection, schedule: Q04DX003 (ip), vehicle: saline with Tween-80", "value": "113 % of control"}]}
{"smiles": "C/C(=N/N)c1ccc(Br)cc1", "values": [{"measurement": "T/C", "setting": "dose: 3.0 mg/kg/injection, schedule: Q01DX009 (ip), vehicle: saline with Tween-80", "value": "103 % of control"}, {"measurement": "T/C", "setting": "dose: 6.0 mg/kg/injection, schedule: Q01DX009 (ip), vehicle: saline with Tween-80", "value": "92 % of control"}, {"measurement": "T/C", "setting": "dose: 22.0 mg/kg/injection, schedule: Q04DX003 (ip), vehicle: saline with Tween-80", "value": "118 % of control"}, {"measurement": "T/C", "setting": "dose: 34.0 mg/kg/injection, schedule: Q04DX003 (ip), vehicle: saline with Tween-80", "value": "118 % of control and 122 % of control"}, {"measurement": "T/C", "setting": "[2]", "value": "122 % of control"}]}
{"smiles": "C[n+]1c(-c2ccccc2)c2cc(N)ccc2c2ccc(N)cc21", "values": [{"measurement": "T/C", "setting": "dose: 25.0 mg/kg/injection, schedule: Q04DX003 (ip), vehicle: saline with Tween-80", "value": "171 % of control"}, {"measurement": "T/C", "setting": "[2]", "value": "90 % of control"}]}
{"smiles": "NN=C1CCC(=NN)CC1", "values": [{"measurement": "T/C", "setting": "dose: 12.5 mg/kg/injection, schedule: Q01DX009 (ip), vehicle: water", "value": "100 % of control"}, {"measurement": "T/C", "setting": "dose: 25.0 mg/kg/injection, schedule: Q01DX009 (ip), vehicle: water", "value": "105 % of control and 109 % of control"}, {"measurement": "T/C", "setting": "dose: 25.0 mg/kg/injection, schedule: Q04DX003 (ip), vehicle: water", "value": "90 % of control and 104 % of control"}, {"measurement": "T/C", "setting": "dose: 50.0 mg/kg/injection, schedule: Q01DX009 (ip), vehicle: water", "value": "103 % of control and 113 % of control and 114 % of control"}, {"measurement": "T/C", "setting": "dose: 50.0 mg/kg/injection, schedule: Q04DX003 (ip), vehicle: water", "value": "95 % of control and 114 % of control and 118 % of control"}, {"measurement": "T/C", "setting": "dose: 100.0 mg/kg/injection, schedule: Q04DX003 (ip), vehicle: water", "value": "102 % of control and 111 % of control"}, {"measurement": "T/C", "setting": "dose: 200.0 mg/kg/injection, schedule: Q04DX003 (ip), vehicle: water", "value": "92 % of control"}]}
{"smiles": "CC(C)(C)OC(=O)NC(CCCCNC(=O)OCc1ccccc1)C(=O)NC(CCCCNC(=O)OCc1ccccc1)C(=O)NC(CCCCNC(=O)OCc1ccccc1)C(=O)OCc1ccccc1", "note": "(stereo unspecified)", "values": [{"measurement": "T/C", "setting": "dose: 50.0 mg/kg/injection, schedule: Q01DX005 (ip), vehicle: saline with Tween-80", "value": "86 % of control"}, {"measurement": "T/C", "setting": "dose: 200.0 mg/kg/injection, schedule: Q01DX005 (ip), vehicle: saline with Tween-80", "value": "90 % of control"}]}
